Literature values as cited in patent US20240261224A1, “FORMULATION OF A PAN-JAK INHIBITOR” (KINASET THERAPEUTICS, INC., priority 2022, published 2024).
Like-named read-outs stand apart in the source and are kept apart here. Marks after values point to notes of the source that are not given here.

Tests used:
[1] = tested on: fractional exhaled nitric oxide (FeNO); conditions: cited from earlier work
[2] = marketed DPI; cited from earlier work

Compound	Mean placebo-corrected FeNO reduction ([1]; 1.0 mg QD, 1 capsule per dose, an increase in FeNO was observed)	Mean placebo-corrected FeNO reduction ([1]; 4.0 mg QD, 4 capsules per dose)	Mean placebo-corrected FeNO reduction ([1]; 15.0 mg BID, 30 capsules per dose)	Mean placebo-corrected FeNO reduction ([1]; 15.0 mg QD, 15 capsules per dose)	MMAD (μm) [2]
CN(CCC#N)C1CCN(C(=O)Cn2cc(NC(=O)c3cnn4cccnc34)c(-c3cc(Cl)ccc3OC(F)F)n2)CC1 [GDC-0214]	0.4%*	−6.5%	−42%	−23%	
CCC(=O)O[C@]1(C(=O)SCF)[C@H](C)C[C@H]2[C@@H]3C[C@H](F)C4=CC(=O)C=C[C@]4(C)[C@@]3(F)[C@@H](O)C[C@@]21C [fluticasone propionate]					6-7 μm
